Our source for the EC50 values is US10919858B2, “Thioacetate compounds, compositions and methods of use” (ARDEA BIOSCIENCES, INC., priority 2010, dated 2021).

Sequence of URAT1 (Q96S37 whole entry, species assumed): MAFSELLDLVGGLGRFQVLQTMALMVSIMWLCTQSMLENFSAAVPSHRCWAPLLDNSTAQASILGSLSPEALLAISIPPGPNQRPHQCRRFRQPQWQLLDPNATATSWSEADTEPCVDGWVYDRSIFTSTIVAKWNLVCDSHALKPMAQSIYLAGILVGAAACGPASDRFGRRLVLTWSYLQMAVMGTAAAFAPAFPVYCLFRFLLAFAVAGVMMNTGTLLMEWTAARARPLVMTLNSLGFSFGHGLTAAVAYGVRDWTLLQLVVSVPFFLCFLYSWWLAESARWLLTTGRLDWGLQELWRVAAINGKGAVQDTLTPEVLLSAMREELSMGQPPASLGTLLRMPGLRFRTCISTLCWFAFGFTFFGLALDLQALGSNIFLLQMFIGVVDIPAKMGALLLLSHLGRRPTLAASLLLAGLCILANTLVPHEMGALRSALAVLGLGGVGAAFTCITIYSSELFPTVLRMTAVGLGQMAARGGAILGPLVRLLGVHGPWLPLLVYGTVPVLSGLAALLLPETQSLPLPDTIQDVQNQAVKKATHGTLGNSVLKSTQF

This assay addresses URAT1 (Homo sapiens (Human), UniProt Q96S37). The assay is described as follows: URAT1-model assay, 14C-uric acid transport in HEK293/URAT1-model cells. Format: cell-based. The conditions noted are these: 14C-uric acid 125 μM, 10 minutes at room temperature, read-out: URAT1 EC50 Activity Ranking. As to the method: HEK293 human embryonic kidney cells (ATCC #CRL-1573) were propagated in EMEM tissue culture medium as described by ATCC in an atmosphere of 5% C02 and 95% air. Transfections of HEK293 cells with a model URAT1 construct was performed using L2000 transfection reagent (Invitrogen) as described by the manufacturer. After 24 h the transfected cells were split into 10 cm tissue culture plates and grown for 1 day after which the medium was replaced with fresh growth medium containing G418 (Gibco) at 0.5 mg/ml final concentration. Drug-resistant colonies were selected after approximately 8 days and then tested for ^14C-uric acid transport activity. The HEK293/URAT1-model cells are plated on Poly-D-Lysine Coated 96-well Plates at a density of 125,000 cells per well.
Cells were grown overnight (20-26 hours) at 37° C. in an incubator. Plates were allowed to come to room temperature and media was washed out with one wash of 250 μl of Wash Buffer (125 mM Na Gluconate, 10 mM Hepes ph 7.3). Compound or vehicle is added in assay buffer with ^14C-uric acid for a final concentration of 125 μM Uric Acid with a specific activity of 54 mCi/mmol. Assay Buffer is 125 mM Sodium Gluconate, 4.8 mM Potassium Gluconate, 1.2 mM Potassium phosphate, monobasic, 1.2 mM magnesium sulfate, 1.3 mM Ca Gluconate, 5.6 mM Glucose, 25 mM HEPES, pH 7.3. Plates were incubated at room temperature for 10 minutes then washed 3 times with 50 μl Wash Buffer and 3 times with 250 μl Wash Buffer. Microscint 20 Scintillation Fluid was added and plates were incubated overnight at room temperature to equilibrate. Plates are then read on the TopCount Plate Reader and an EC50 value generated. (See Enomoto et al, Nature, 2002, 417, 447-451 and Anzai et al, J. Biol. Chem., 2004, 279, 45942-45950.)
`CC(C)(Sc1cccnc1-c1ccc(C#N)cc1)C(=O)O` [Example 1A, 2-(2-(4-Cyanophenyl)pyridin-3-ylthio)-2-methylpropanoic acid]: the half-maximal effective concentration (EC50) was in the range of 50 to 500 nM.
The figure for `CC(C)(Sc1ccncc1-c1ccc(C#N)cc1)C(=O)O` [Example 2A, 2-(3-(4-Cyanophenyl)pyridin-4-ylthio)-2-methylpropanoic acid] is 1 to 50 nM; for `CC(C)(Sc1ccncc1-c1ccc(O)cc1)C(=O)O` [Example 2AAA] it is 1 to 50 nM; for `CC(C)(Sc1ccncc1-c1ccc(Br)c2ccccc12)C(=O)O` [Example 2AA] it is 50 to 500 nM.
On to `CC(C)(Sc1ccncc1-c1ccc(C#N)c(F)c1)C(=O)O` [Example 2BBB], for which the EC50 fell in the range of 50 to 500 nM.
`Cc1ccc(-c2cnccc2SC(C)(C)C(=O)O)c2ccccc12` [Example 2BB]: the EC50 was in the range of 50 to 500 nM.
Take `Cc1ccc(-c2cnccc2SC(C)(C)C(=O)O)cc1` [Example 2CCC]: the EC50 was in the range of 50 to 500 nM.
With `CC(C)(Sc1ccncc1-c1ccc(S(N)(=O)=O)cc1)C(=O)O` [Example 2CC], the concentration for a half-maximal effect (EC50) fell in the range of 50 to 500 nM.
For `CC(C)(Sc1ccncc1-c1ccc(C#N)c2ccccc12)C(=O)O` [Example 2C], the EC50 was 1 to 50 nM.
As to `CC(=O)Nc1ccc(-c2cnccc2SC(C)(C)C(=O)O)cc1` [Example 2DDD], the EC50 was 50 to 500 nM.
`CC(C)(Sc1ccncc1-c1cccc2ccccc12)C(=O)O` [Example 2DD]: the EC50 was in the range of 50 to 500 nM.
`CC(C)(Sc1ccncc1-c1ccc(S(=O)(=O)NC2CC2)cc1)C(=O)O` [Example 2D]: the EC50 was in the range of 50 to 500 nM.
With `CC(C)(Sc1ccncc1-c1ccc(S(C)(=O)=O)cc1)C(=O)O` [Example 2EEE], the EC50 fell in the range of 50 to 500 nM.
The value for `CC(C)(Sc1ccncc1-c1ccc(Cl)c(C(F)(F)F)c1)C(=O)O` [Example 2EE] was 50 to 500 nM.
With `CC(C)(Sc1ccncc1-c1ccc(C#N)c(Cl)c1)C(=O)O` [Example 2FFF], the concentration for a half-maximal effect (EC50) lay in the range of 1 to 50 nM.
`CC(C)(Sc1ccncc1-c1cnc2ccccc2c1)C(=O)O` [Example 2F]: the half-maximal effective concentration (EC50) fell in the range of 50 to 500 nM.
On to `CC(C)(Sc1ccncc1-c1ccc(S)cc1)C(=O)O` [Example 2GGG], for which the EC50 was 50 to 500 nM.
The figure for `CC(C)(Sc1ccncc1-c1ccc(F)cc1)C(=O)O` [Example 2GG] is 50 to 500 nM; for `CC(C)(Sc1ccncc1-c1cccc2ncccc12)C(=O)O` [Example 2H] it is 50 to 500 nM.
Take `CC(C)(Sc1ccncc1-c1ccc(C#N)cc1F)C(=O)O` [Example 2III]: the EC50 is 1 to 50 nM.
As to `CC(C)(Sc1ccncc1-c1ccnc2ccccc12)C(=O)O` [Example 2II], the EC50 is 50 to 500 nM.
As for `CC(C)(Sc1ccncc1-c1ccc(C(N)=O)cc1F)C(=O)O` [Example 2JJJ], the concentration for a half-maximal effect (EC50) fell in the range of 50 to 500 nM.
For `CC(C)(Sc1ccncc1-c1ccc(CO)cc1)C(=O)O` [Example 2JJ], the 50% effective concentration (EC50) lay within 1 to 50 nM.
For `N#Cc1ccc(-c2cnccc2SC2(C(=O)O)CCC2)c2ccccc12` [Example 2J], the half-maximal effective concentration (EC50) was in the range of 1 to 50 nM.
For the molecule `CC(C)(Sc1ccncc1-c1ccc(C(N)=O)cc1)C(=O)O` [Example 2KK], the concentration for a half-maximal effect (EC50) lay within 50 to 500 nM.
On to `CCc1ccc(-c2cnccc2SC(C)(C)C(=O)O)cc1` [Example 2K], for which the concentration for a half-maximal effect (EC50) lay within 50 to 500 nM.
Turning to `COc1cncc(-c2cnccc2SC(C)(C)C(=O)O)c1` [Example 2MM], the EC50 is 50 to 500 nM.
In the case of `Cc1cc(C#N)ccc1-c1cnccc1SC(C)(C)C(=O)O` [Example 2NN], the EC50 was in the range of 1 to 50 nM.
The figure for `CC(C)(Sc1ccncc1-c1ccc(C(F)(F)F)cc1)C(=O)O` [Example 2N] is 50 to 500 nM.
In the case of `CC(C)(Sc1ccncc1-c1ccc(Cl)cc1)C(=O)O` [Example 2O], the half-maximal effective concentration (EC50) lay within 1 to 50 nM.
`CC(C)(Sc1ccncc1-c1ccncc1)C(=O)O` [Example 2PP]: the EC50 was in the range of 1 to 50 nM.
In the case of `CC(C)(Sc1ccncc1-c1ccc(Cl)cc1)C(=O)O` [Example 2P], the EC50 lay in the range of 1 to 50 nM.
Take `CSc1ccc(-c2cnccc2SC(C)(C)C(=O)O)cc1` [Example 2Q]: the EC50 lay in the range of 50 to 500 nM.
For the molecule `CC(C)(Sc1ccncc1-c1ccc(Cl)c(Cl)c1)C(=O)O` [Example 2S], the EC50 was 50 to 500 nM.
The figure for `CC(C)(Sc1ccncc1-c1cccc(C#N)c1)C(=O)O` [Example 2TT] is 50 to 500 nM; for `COc1ccc(-c2cnccc2SC(C)(C)C(=O)O)cn1` [Example 2T] it is 50 to 500 nM; for `CC(C)(Sc1ccncc1-c1ccc(Br)cc1)C(=O)O` [Example 2UU] it is 1 to 50 nM.
As to `CC(C)(Sc1ccncc1-c1cncc2ccccc12)C(=O)O` [Example 2U], the concentration giving a half-maximal response (EC50) was in the range of 50 to 500 nM.
In the case of `Cc1cc(C(N)=O)ccc1-c1cnccc1SC(C)(C)C(=O)O` [Example 2WW], the EC50 lay in the range of 50 to 500 nM.
For the molecule `CC(C)(Sc1ccncc1-c1ccc(F)c(F)c1)C(=O)O` [Example 2W], the EC50 lay in the range of 50 to 500 nM.
For the molecule `COc1ccc(-c2cnccc2SC(C)(C)C(=O)O)cc1` [Example 2XX], the 50% effective concentration (EC50) lay in the range of 50 to 500 nM.
Turning to `CC(C)(Sc1ccncc1-c1ccc(F)c2ccccc12)C(=O)O` [Example 2X], the 50% effective concentration (EC50) fell in the range of 1 to 50 nM.
In the case of `COc1cc(-c2cnccc2SC(C)(C)C(=O)O)ccc1C#N` [Example 2ZZ], the EC50 fell in the range of 50 to 500 nM.
Turning to `CC(C)(Sc1cnccc1-c1ccc(C#N)cc1)C(=O)O` [Example 3A, 2-(4-(4-Cyanophenyl)pyridin-3-ylthio)-2-methylpropanoic acid], the EC50 was in the range of 500 to 10000 nM.
Take `N#Cc1ccc(-c2cccnc2SC2(C(=O)O)CCC2)c2ccccc12` [Example 4C]: the EC50 was in the range of 50 to 500 nM.
Take `N#Cc1ccc(-c2nccnc2SCC(=O)O)c2ccccc12` [Example 5A, 2-(3-(4-Cyanonaphthalen-1-yl)pyrazin-2-ylthio)acetic acid]: the EC50 lay within 500 to 10000 nM.
`N#Cc1ccc(-c2cncnc2SCC(=O)O)c2ccccc12` [Example 6A, 2-(5-(4-Cyanonaphthalen-1-yl)pyrimidin-4-ylthio)acetic acid]: the concentration giving a half-maximal response (EC50) lay in the range of 500 to 10000 nM.
For `N#Cc1ccc(-c2ncncc2SCC(=O)O)c2ccccc12` [Example 7A, 2-(4-(4-Cyanonaphthalen-1-yl)pyrimidin-5-ylthio)acetic acid], the half-maximal effective concentration (EC50) was 500 to 10000 nM.

The term EC50 denotes the midpoint of the concentration-response curve.
